Data reported in patent publication US10987325B2, “Compositions and uses thereof for treating inflammatory diseases and probiotic compositions” (CHAIN Biotechnology Limited, priority 2016, dated 2021).

Assays:
[1] = test system: primary human intestinal organoids; assay: Primary human intestinal organoids, TNFα (40 ng/mL) induced inflammation, mRNA of NF-κB and TNFα by qPCR; type: cell-based; settings: 10 μM, 18 hours
[2] = test system: IL-23; assay: Primary human intestinal organoids, TNF-α (60 ng/mL), IL-23 mRNA at increasing concentrations, qPCR; type: cell-based; settings: 24 hours; for impact on IL-23 expression compared with butyrate: at 10-100 μM
Experimental: Primary human intestinal organoids were cultured for 8 weeks prior to experiments as described in […] et al. (2013) Stem Cell Reports.

[3] = test system: ex vivo colon tissue samples; assay: Ex-vivo human colon tissue model, TNF-α stimulus, protein in culture supernatants by Luminex; type: cell-based
Excerpt: Colorectal specimens can be obtained from surgical resections of intestinal tissue or from biopsies, after receiving signed informed consent from the patients. Following resection of tissue, specimens are kept in a specimen collection pot containing DMEM for transportation to the laboratory. Put the specimen in a Petri plate with some medium. Strip the muscle from the resected specimen with sterile scalpel. Transfer the remaining tissue into a new Petri plate with medium and cut the tissue into explants comprising both epithelial and muscularis mucosae (Berry […]. Methods Mol. Biol. 2011; 665: 133-60). Proceed to assay. To induce inflammation, explants are incubated with 100 μl of inflammatory stimulus (TNF-α 15 μg/ml) in 96-well U-bottom sterile plates. Incubate explants for one hour with […] of complete medium (DMEM containing FCS, L-glutamine and antibiotics). […] Tissue explants are then cultured at 37° C. in an atmosphere containing 5% CO2 for 24 hours. Negative controls are tissue explants cultured without stimulus nor candidate compounds (add 200 μl of complete medium). Positive controls are explants treated only with inflammatory stimulus. Following culture, remove tissue explants from culture wells, spin down plates and harvest 180 μl of the culture supernatant. Freeze supernatants and tissue explants at -80° C. Proceed to quantification of analytes of interest in supernatants and/or tissue explants. The Luminex method was used to determine protein concentration in culture supernatants: Luminex Protocol: In house assay was conducted by Dr Carolina Herrera at St Mary's Hospital, Paddington, London. Luminex Assay Buffer: PBS, goat serum, mouse serum, Tween 20, Tris pH 7-8. Luminex Wash Buffer: PBS, Tween-20. Procedure: […] Relative protein level [ng/mL] was determined using a standard curve.

[4] = test system: ex vivo colon tissue samples; assay: Ex-vivo human colon tissue model, TNF-α stimulus, Proteome Profiler Human XL Cytokine Array; type: cell-based; settings: TNF-α 60 min then 10 mM for 24 hours, versus TNF-α alone
Experimental: To induce inflammation, explants are incubated with 100 μl of inflammatory stimulus (TNF-α 15 μg/ml) in 96-well U-bottom sterile plates. Incubate explants for one hour with […] of complete medium (DMEM containing FCS, L-glutamine and antibiotics). […] Tissue explants are then cultured at 37° C. in an atmosphere containing 5% CO2 for 24 hours. Negative controls are tissue explants cultured without stimulus nor candidate compounds (add 200 μl of complete medium). Positive controls are explants treated only with inflammatory stimulus. Following culture, remove tissue explants from culture wells, spin down plates and harvest 180 μl of the culture supernatant. Freeze supernatants and tissue explants at −80° C. Proceed to quantification of analytes of interest in supernatants and/or tissue explants. A Proteome Profiler™ Array was used to measure the relative abundance of a larger set of proteins and cytokines involved in the immune response. The experimental conditions and the preparation of the colon tissue samples was the same as described above. The Human XL Cytokine Array Kit (www.rndsystems.com), Catalog Number ARY022 was used for this experiment. Cytokines, chemokines and growth factors are extracellular signaling molecules that mediate cell to cell communication. These molecules are released from cells and have critical roles in many biological processes such as cellular growth, differentiation, gene expression, migration, immunity and inflammation. In most biological processes, multiple cytokines operate in a large network, where the action of one cytokine is regulated by the presence or absence of other cytokines. The Human XL Cytokine Array Kit is a rapid, sensitive, and economic tool to simultaneously detect cytokine differences between samples. The relative expression levels of 102 human soluble proteins can be determined without performing numerous immunoassays. Capture and control antibodies have been spotted in duplicate on nitrocellulose membranes. […]

[5] = test system: primary human intestinal organoids; assay: Primary human intestinal organoids, TNF-α (40 ng/mL) induced inflammation, mRNA panel of inflammation factors by qPCR
[6] = TNF-α 60 min then 10 mM for 24 hours, versus TNF-α alone
[7] = ex vivo colon tissue, data not shown
[8] = TNF-α 40 ng/mL, sodium salts at 10 μM, 18 hours, versus TNF-α alone

## (R)-3-hydroxybutyrate [(R)-3-HB]
[1]
  mRNA expression of NF-κB: decreased
  mRNA expression of TNF-α: decreased
[2]
  impact on IL-23 expression compared with butyrate: greater reducing impact
[2]; listed as (R)-3HB
  impact on IL-23 expression compared with butyrate: greater reducing effect
[2]; sodium salts
  concentrations effective at reducing expression of IL-23: 10 to 100 µM
[3]; [6]
  protein concentration of IL-1β: decreased
  protein concentration of IL-6: decreased
  protein concentration of IL-12: decreased
  protein concentration of anti-inflammatory cytokine IL-10: increased
[3]; [7]
  effect on major protective regulators of intestinal inflammation compared with butyrate: greater inducing effect
  effect on multiple pro-inflammatory regulators of IBD compared with butyrate: greater reducing effect
[4]
  protein concentration of IL-23 (relative abundance, non-quantitative): decreased
  protein concentration of MMP9 (relative abundance, non-quantitative): decreased
  protein concentration of TNF-α (relative abundance, non-quantitative): decreased
[5]; [8]
  mRNA expression of IL-6: decreased
  mRNA expression of IL-23: decreased
  mRNA expression of NF-κβ: decreased
  mRNA expression of TNF-α: decreased
  mRNA expression of anti-inflammatory cytokine IL-10: increased
  mRNA expression of anti-inflammatory cytokine TGF-β1: increased
[5]; organoids, data not shown
  effect on major protective regulators of intestinal inflammation compared with butyrate: greater inducing effect
  effect on multiple pro-inflammatory regulators of IBD compared with butyrate: greater reducing effect
